{"source": "patent US10590166B2", "about": "“Peptides useable for treating cancer” (Allegro Pharmaceuticals, LLC, priority 2009, dated 2020)", "assay_type_in_all_cases": "in vivo", "key": {"CNV mouse model": {"system": "CNV mouse model", "assay": "Suppression of laser-induced choroidal neovascularization, CNV mouse model", "conditions": "14 days after laser; for size of CNV lesions: vs vehicle", "experimental": "In this example, Compound 1 was tested to determine whether it CNV in a published mouse model. See, Umeda N, Kachi S, Akiyama H, Zahn G, Vossmeyer D, Stragies R, Campochiaro P., Suppression and Regression of Choroidal Neovascularization by Systemic Administration of an α5β1 Integrin Antagonist: Molecular Pharmacology:2006, 69, 1820-1828.\nThe study mice had laser-induced rupture of Bruch's membrane followed by an intravitreal injection of a single dose of COMPOUND 1 at the concentration of 1.0 μg/1 μL, 25 μg/1 μL and at 50 μg/1 μL, as well as a vehicle immediately after laser treatment. Fourteen days after laser treatment, the area of CNV was measured by image analysis. […] FIG. 8 is a graph showing total area of neovascularization in a CNV mouse model 14 days after treatment with various doses of Compound 1 and control (vehicle only)."}, "[1]": {"system": "ischemic retinopathy mouse model", "assay": "ROP / ischemic retinopathy mouse model, pre-retinal neovascularization", "experimental": "In this Example, Compound 1 was tested in an ischemic retinopathy mouse model to explore the feasibility of suppressing pre-retinal neovascularization.\nMice that had ischemic retinopathy were injected intravitreously with a single dose of Compound 1 at the concentration of 0.125 μg/1 μL, 12.5 μg/1 μL, 25.0 μg/1 μL and at 50.0 μg/1 μL (Groups B, D, F and H, respectively), as well as a vehicle (BSS) (Controls 1, 2, 3 and 4) on post-natal day 12. On post-natal day 17, 5 days after intravitreal injection, the area of neovascularization was measured by image analysis. FIG. 9 is a bar graph comparing the measured area of neovascularization in mice treated with these varying doces of compound 1 or control (vehicle only)."}, "[2]": {"system": "Pigmented New Zealand Rabbits", "assay": "Ocular toxicity dose escalation, multiple intravitreal injections of Compound 1 (Table E)", "conditions": "up to 3 intravitreal injections of 2.5, 5.0 or 10.0 mg/100 μL"}, "[3]": {"system": "human subjects with diabetic macular edema", "conditions": "for persistence of improvements in BCVA and OCT central macular thickness off treatment: follow up after the last intravitreal treatment", "experimental": "Fifteen human patients with late stage DME received three monthly intravitreal injections of Compound 1 as part of a multiple-injection Phase 1 Human Safety Study. […] While this study was firstly a safety study, efficacy was also assessed. Eight of the patients patients improved three or more lines in BCVA (representing 53% of the treated patients) and four of the patients improved from nearly legally blind to functional vision in the 20/40 to 20/60 range. […] These improvements in BCVA and OCT central macular thickness persisted for 90 days of follow up off treatment.\nThe objective of the Phase 1 study was to evaluate the safety and initial efficacy of the ophthalmic intravitreal injection of COMPOUND 1 in human subjects with end stage diabetic macular edema (DME). The primary endpoint of this study was the observation of dose limiting toxicity. A secondary endpoint of this study was observation of a clinical benefit in reducing the diabetic macular edema in BCVA (ETDRS lines) and OCT central macular thickness.\nFifteen human subjects with chronic end-stage DME completed this open label study. Subjects at enrollment had BCVA of 20/100 or worse primarily due to DME and had not undergone anti-VEGF treatment or focal laser within 90 days prior to enrollment. Many study subjects were refractory to previous Avastin treatments. Study subjects received three monthly intravitreal injections of 2.5 mg COMPOUND 1 and were followed monthly for an additional 3 months. Safety measurements were followed by BCVA, slit lamp evaluation, dilated fundus exam, 10P measurements, OCT, FA, Fundus Photos, B-scan ultrasound, and ERG."}, "[4]": {"conditions": "15 DME patients, three monthly intravitreal injections of 2.5 mg"}, "[5]": {"conditions": "15 DME patients, three monthly intravitreal injections of 2.5 mg, listed as COMPOUND 1"}}, "note": "“And” between values parts separate entries of the source, which are not always exact repeats. Identical values can stand only once. Like-named read-outs stand apart in the source and are kept apart here. Square brackets hold non-standard residues; d marks the D form. Peptide text beside a SMILES is read from it. Cya = N[CH](CS(=O)(=O)O)C(=O)O"}
{"smiles": "CC(O)C(NC(=O)C(CS(=O)(=O)O)NC(=O)CNC(=O)C(CCCNC(=N)N)NC(=O)CN)C(=O)N1CCCC1C(=O)O", "note": "(stereo not shown) [Compound 1, Glycinyl-Arginyl-Glycinyl-Cysteic-Threonyl-Proline-COOH] (H-GRG[Cya]TP-OH; configuration not given here)", "values": [{"measurement": "size of CNV lesions", "setting": "CNV mouse model; single intravitreal 1.0 μg/1 μL", "value": "somewhat smaller"}, {"measurement": "reduction in CNV compared to vehicle treated eyes", "setting": "CNV mouse model; single intravitreal 25 μg/1 μL, statistically significant", "value": 43, "unit": "%"}, {"measurement": "size of CNV lesions", "setting": "CNV mouse model; single intravitreal 50 μg/1 μL", "value": "somewhat smaller"}, {"measurement": "size of neovascularization lesions", "setting": "[1]; Group B, single intravitreal 0.125 μg/1 μL on post-natal day 12, measured day 17", "value": "somewhat smaller"}, {"measurement": "size of neovascularization lesions", "setting": "[1]; Group D, single intravitreal 12.5 μg/1 μL on post-natal day 12, measured day 17, statistically significant vs control", "value": "greatly decreased"}, {"measurement": "size of neovascularization lesions", "setting": "[1]; Group F, single intravitreal 25.0 μg/1 μL on post-natal day 12, measured day 17, statistically significant vs control", "value": "greatly decreased"}, {"measurement": "size of neovascularization lesions", "setting": "[1]; Group H, single intravitreal 50.0 μg/1 μL on post-natal day 12, measured day 17, statistically significant vs control", "value": "greatly decreased"}, {"measurement": "Tonometry, average for treated eyes", "setting": "[2]", "value": 12.7, "unit": "mmHg average"}, {"measurement": "Ocular toxicity: RPE toxicity", "setting": "[2]; sacrifice Day 7, 37 or 90", "value": "No RPE toxicity"}, {"measurement": "Ocular toxicity: cataract formation", "setting": "[2]; sacrifice Day 7, 37 or 90", "value": "No cataract"}, {"measurement": "Ocular toxicity: exudates", "setting": "[2]; sacrifice Day 7, 37 or 90", "value": "No exudates"}, {"measurement": "Ocular toxicity: inflammation", "setting": "[2]; sacrifice Day 7, 37 or 90", "value": "No inflammation"}, {"measurement": "Ocular toxicity: retinal hemorrhage", "setting": "[2]; sacrifice Day 7, 37 or 90", "value": "No retinal"}, {"measurement": "Ocular toxicity: retinal tears, breaks or detachments", "setting": "[2]; sacrifice Day 7, 37 or 90", "value": "No retinal tears,"}, {"measurement": "Ocular toxicity: retinal vascular compromise", "setting": "[2]; sacrifice Day 7, 37 or 90", "value": "No retinal vascular"}, {"measurement": "number of patients with no material increase in CMT", "setting": "[3]; 15 DME patients", "value": "7 out of 15 patients"}, {"measurement": "number of subjects with no material change in BCVA", "setting": "[3]; 15 DME patients", "value": "7 out of 15 subjects"}, {"measurement": "share of treated patients improved three or more lines in BCVA", "setting": "[3]; 15 DME patients, by study day 90 after 3 intravitreal injections of 2.5 mg", "value": 53, "unit": "%"}, {"measurement": "number of patients improved from nearly legally blind to functional vision in the 20/40 to 20/60 range", "setting": "[3]; 15 DME patients, three monthly intravitreal injections", "value": "four"}, {"measurement": "number of patients with reduction in CMT by 30% to 80%", "setting": "[3]; [4]", "value": "eight"}, {"measurement": "number of subjects improved BCVA by three or more (three to five) lines", "setting": "[3]; [4]", "value": "Eight"}, {"measurement": "share of subjects with reduction in OCT central macular thickness of at least 30%", "setting": "[3]; [4]", "value": 53, "unit": "%"}, {"measurement": "number of patients with reduction in CMT by 30% to 80%", "setting": "[3]; [5]", "value": "8 out of 15 and 8 of 15 patients"}, {"measurement": "number of subjects improved BCVA by three or more (three to five) lines", "setting": "[3]; [5]", "value": "8 out of 15 and 8 of 15 subjects"}, {"measurement": "maximum reduction in macular edema (OCT)", "setting": "[3]; 608 to 103", "value": 505, "unit": "microns"}, {"measurement": "maximum reduction in macular edema (OCT), relative", "setting": "[3]; 608 to 103 microns", "value": "~80", "unit": "%"}, {"measurement": "persistence of improvements in BCVA and OCT central macular thickness off treatment", "setting": "[3]", "value": 90, "unit": "days"}, {"measurement": "persistence of improvements in BCVA and OCT central macular thickness off treatment", "setting": "[3]; listed as COMPOUND 1", "value": "at least 90 days"}, {"measurement": "ERG changes", "setting": "[3]; in vivo", "value": "No ERG changes"}, {"measurement": "corneal decompensation or cataract progression", "setting": "[3]; in vivo", "value": "No corneal decompensation or cataract progression"}, {"measurement": "elevations in IOP", "setting": "[3]; in vivo", "value": "No sustained elevations in IOP"}, {"measurement": "inflammatory reactions in the anterior chamber or vitreous cavity", "setting": "[3]; in vivo", "value": "no reports of inflammatory reactions"}, {"measurement": "retinal tears or retinal detachments", "setting": "[3]; in vivo", "value": "No retinal tears or retinal detachments"}, {"measurement": "vascular occlusions", "setting": "[3]; in vivo", "value": "no vascular occlusions"}]}
